Reference: paper PMC3914206

Key:
Assay type in all cases: binding
panel of 442 kinases [1] = target: T1, panel of 442 kinases (Homo sapiens, UniProt P07333); settings: Compound Concentration 10 µM
T1 construct: purchased KINOMEscan
From the text: (§1) We assessed the selectivity of members of this scaffold using the KINOMEscan methodology across a near comprehensive panel of 442 kinases [[18,27]].

panel of 442 kinases [2] = target: T2, panel of 442 kinases (Homo sapiens, UniProt P45985); settings: Compound Concentration 10 µM
T2 construct: purchased KINOMEscan
T2 sequence (P45985 1-399): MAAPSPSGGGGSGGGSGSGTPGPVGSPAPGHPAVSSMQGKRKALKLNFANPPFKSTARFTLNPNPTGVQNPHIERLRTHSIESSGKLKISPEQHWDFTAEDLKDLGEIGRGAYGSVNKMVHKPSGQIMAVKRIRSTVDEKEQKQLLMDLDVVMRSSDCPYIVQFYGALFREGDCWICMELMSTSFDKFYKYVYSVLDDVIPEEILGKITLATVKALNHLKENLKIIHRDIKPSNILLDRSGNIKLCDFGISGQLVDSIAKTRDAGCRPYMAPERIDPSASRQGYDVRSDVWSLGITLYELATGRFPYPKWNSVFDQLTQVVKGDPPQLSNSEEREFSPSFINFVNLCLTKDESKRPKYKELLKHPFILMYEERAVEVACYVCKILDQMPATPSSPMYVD
From the text: as §1

panel of 442 kinases [3] = target: T3, panel of 442 kinases (Homo sapiens, UniProt Q9NYL2); settings: kinase ZAK; compound concentration 10 µM
T3 construct: purchased KINOMEscan
T3 sequence (Q9NYL2 whole entry): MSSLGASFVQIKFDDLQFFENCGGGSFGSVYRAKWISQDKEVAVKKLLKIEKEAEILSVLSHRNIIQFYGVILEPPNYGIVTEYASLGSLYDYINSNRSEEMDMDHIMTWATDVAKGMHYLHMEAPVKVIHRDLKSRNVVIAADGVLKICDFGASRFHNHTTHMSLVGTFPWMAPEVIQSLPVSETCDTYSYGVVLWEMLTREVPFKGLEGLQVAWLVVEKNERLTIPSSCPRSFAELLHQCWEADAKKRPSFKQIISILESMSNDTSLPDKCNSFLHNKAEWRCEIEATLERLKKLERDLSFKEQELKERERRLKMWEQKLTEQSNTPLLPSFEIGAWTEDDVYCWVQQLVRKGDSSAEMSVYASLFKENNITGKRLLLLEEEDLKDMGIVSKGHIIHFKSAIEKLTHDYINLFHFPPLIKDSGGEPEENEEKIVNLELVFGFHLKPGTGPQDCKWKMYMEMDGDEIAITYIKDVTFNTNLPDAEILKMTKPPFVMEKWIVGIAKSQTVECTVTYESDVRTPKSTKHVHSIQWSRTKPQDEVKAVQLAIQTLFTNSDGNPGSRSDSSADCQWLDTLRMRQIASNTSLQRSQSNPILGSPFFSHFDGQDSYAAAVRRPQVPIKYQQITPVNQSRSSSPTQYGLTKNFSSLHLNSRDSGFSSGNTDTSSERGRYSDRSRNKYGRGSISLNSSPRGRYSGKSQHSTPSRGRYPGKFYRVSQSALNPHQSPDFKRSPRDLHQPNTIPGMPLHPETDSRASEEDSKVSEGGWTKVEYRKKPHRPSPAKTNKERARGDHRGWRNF
From the text: as §1

T1 sequence (P07333 20-972): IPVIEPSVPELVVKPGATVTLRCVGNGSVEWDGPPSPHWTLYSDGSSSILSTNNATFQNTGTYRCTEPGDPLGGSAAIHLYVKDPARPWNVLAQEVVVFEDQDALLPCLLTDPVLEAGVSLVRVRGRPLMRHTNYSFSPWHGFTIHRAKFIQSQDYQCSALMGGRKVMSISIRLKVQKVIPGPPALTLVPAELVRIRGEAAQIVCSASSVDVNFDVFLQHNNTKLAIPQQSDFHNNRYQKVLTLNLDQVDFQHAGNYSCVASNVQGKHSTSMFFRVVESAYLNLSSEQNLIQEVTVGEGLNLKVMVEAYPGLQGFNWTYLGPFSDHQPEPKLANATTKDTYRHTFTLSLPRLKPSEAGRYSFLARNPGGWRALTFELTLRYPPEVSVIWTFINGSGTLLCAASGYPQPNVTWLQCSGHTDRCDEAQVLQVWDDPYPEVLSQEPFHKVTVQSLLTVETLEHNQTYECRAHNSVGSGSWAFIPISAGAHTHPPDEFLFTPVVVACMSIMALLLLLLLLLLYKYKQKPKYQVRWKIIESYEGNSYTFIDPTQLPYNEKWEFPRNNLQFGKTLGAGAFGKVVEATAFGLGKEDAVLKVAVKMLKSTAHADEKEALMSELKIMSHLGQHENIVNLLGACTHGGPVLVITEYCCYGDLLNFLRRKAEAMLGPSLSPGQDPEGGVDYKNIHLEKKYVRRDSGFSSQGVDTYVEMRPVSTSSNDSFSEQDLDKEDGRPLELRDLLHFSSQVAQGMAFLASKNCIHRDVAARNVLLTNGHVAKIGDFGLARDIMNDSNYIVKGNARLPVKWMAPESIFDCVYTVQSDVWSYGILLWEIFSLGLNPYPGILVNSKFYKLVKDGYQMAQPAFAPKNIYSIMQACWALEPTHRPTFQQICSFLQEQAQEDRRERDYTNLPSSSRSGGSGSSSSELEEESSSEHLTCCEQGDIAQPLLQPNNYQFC

SMILES | KINOMEscan: CSF1R (panel of 442 kinases [1]) | KINOMEscan: MEK4 (panel of 442 kinases [2]) | % Ctrl, ZAK (panel of 442 kinases [3])
COc1cc(C(=O)N2CCC(N3CCN(C)CC3)CC2)ccc1Nc1ncc2c(n1)N(C)c1ccccc1C(=O)N2C [15 (LRRK2-IN-1)] | 98 | 100 | 99 % Ctrl
COc1cc(C(=O)N2CCC(N3CCN(C)CC3)CC2)ccc1Nc1ncc2c(n1)N1CCc3cccc(c31)C(=O)N2C [Compound 24] | 57 |  | 88 % Ctrl
COc1cc(C(=O)N2CCC(N3CCN(C)CC3)CC2)ccc1Nc1ncc2c(n1)N(C1CCCC1)c1ccccc1C(=O)N2C [Compound 25, 11-cyclopentyl-2-((2-methoxy-4-(4-(4-methylpiperazin-1-yl)piperidine-1-carbonyl)phenyl)amino)-5-methyl-5H-benzo[e]pyrimido[5,4-b][1,4]diazepin-6(11H)-one] | 56 | 100 | 100 % Ctrl
CCOc1cc(C(=O)N2CCC(N3CCN(C)CC3)CC2)ccc1Nc1ncc2c(n1)N(C1CCCC1)c1ccccc1C(=O)N2C [Compound 26] | 100 | 100 | 100 % Ctrl
